The source of these data is ChEMBL document CHEMBL4145596, “Design, Synthesis, and X-ray of Selenides as New Class of Agents for Prevention of Diabetic Cerebrovascular Pathology” (ACS Med Chem Lett, 2018).

In one data set the target is Carbonic anhydrase 9 (Homo sapiens, UniProt Q16790).
Data set [1] concerns RBE4. Kind of data set: Cytotoxicity against rat RBE4 cells assessed as mortality at 10 uM after 24 hrs by MTT assay. As to conditions: rbe4, 24 h. Format: cell-based. In general terms: Formazan colour is commonly taken as a measure of viable cells.
Data set [2] has as its system RBE4. Kind of data set: Protection against glucose oxidase-induced oxidative stress in rat RBE4 cells assessed as increase in cell viability at 10 to 100 uM cotreated with glucose oxidase for 1 hr measured after 24 hrs by MTT assay. Format: functional, cell-based.
Data set [3] deals with RBE4. The data set can be described thus: Cytotoxicity against rat RBE4 cells assessed as mortality at 30 uM after 24 hrs by MTT assay. Format: cell-based. As to conditions: rbe4, 24 h.
Data set [4] relates to RBE4. Kind of data set: Protection against glucose oxidase-induced oxidative stress in rat RBE4 cells assessed as increase in cell viability at 100 uM cotreated with glucose oxidase for 1 hr measured after 24 hrs by MTT assay. Format: functional, cell-based.

The source made the active and inactive calls. The rule behind the calls is not given here.

The term Ki denotes a dissociation constant, usually derived from enzyme kinetics or from competition with a known ligand. Low values mean higher affinity, high ones lower affinity. As usually defined, the mortality is the share of the test organisms that died.

Description for Carbonic anhydrase 9: Inhibition of human carbonic anhydrase 9 after 15 mins by stopped flow carbon dioxide hydration assay

`C#CC[Se]c1ccc(S(N)(=O)=O)cc1` returned a Ki at Carbonic anhydrase 9 of 2.7 nM.

On to `C=CC[Se]c1ccc(S(N)(=O)=O)cc1`, for which the inhibitory constant (Ki) at Carbonic anhydrase 9 turned out to be 2.6 nM.

As for `NS(=O)(=O)c1ccc([Se]CCO)cc1`, the affinity on Carbonic anhydrase 9 corresponds to a Ki of 2.4 nM. The Activity result in the data set on RBE4 [1] is on record as “Non-Toxic”. Also, the result in the data set with RBE4 [2] was inactive.

As to `NS(=O)(=O)c1ccc([Se]CCc2ccccc2)cc1`, the inhibition constant Ki at Carbonic anhydrase 9 is 8.7 nM.

Turning to `CC(C)[Se]c1ccc(S(N)(=O)=O)cc1`, the Ki on Carbonic anhydrase 9 turned out to be 2.4 nM. The Activity entry in the data set on RBE4 [1] was “Non-Toxic”. Besides, in the data set with RBE4 [2], the result was inactive.

Take `C[Se]c1ccc(S(N)(=O)=O)cc1`: the inhibition constant Ki at Carbonic anhydrase 9 is 2.7 nM.

For the compound `NS(=O)(=O)c1ccc([Se][Se]c2ccc(S(N)(=O)=O)cc2)cc1`, the mortality in the data set on RBE4 [3] amounted to 50%.

`NS(=O)(=O)c1ccc([Se]C2CCCCC2)cc1`: the Ki on Carbonic anhydrase 9 worked out at 2.6 nM.

For the compound `NS(=O)(=O)c1ccc(C[Se]c2ccccc2)cc1`, the Ki on Carbonic anhydrase 9 turned out to be 2.7 nM.

Turning to `CC#CC[Se]c1ccc(S(N)(=O)=O)cc1`, the affinity at Carbonic anhydrase 9, expressed as Ki, was 2.2 nM.

`CCCCC[Se]c1ccc(S(N)(=O)=O)cc1` showed a Ki at Carbonic anhydrase 9 of 2.6 nM. Also, the Activity result in the data set on RBE4 [1] is “Non-Toxic”. The outcome in the data set on RBE4 [2] was inactive.

In the case of `COCC[Se]c1ccc(S(N)(=O)=O)cc1`, the affinity on Carbonic anhydrase 9 corresponds to a Ki of 12 nM. Further, in the data set on RBE4 [1], the Activity entry is reported as “Non-Toxic”. Also, the result with RBE4 [4] was Active.
